These results are taken from patent US10294202B2, “Pyrrolidinones as herbicides” (FMC Corporation, priority 2013, dated 2019).

Common to all, as to experiment: Test D pre-/postemergence herbicide test
In one experiment the test system is speedwell. The format is in vivo, Veronica persica. To be noted: for Plant response rating: Postemergence, Speedwell, scale 0 to 100; for Plant response rating, Speedwell: Preemergence, scale 0 to 100 (0 no effect, 100 complete control). From the text: (§1) Seeds of plant species selected from bluegrass (annual bluegrass, Poa annua), blackgrass (Alopecurus myosuroides), canarygrass (littleseed canarygrass, Phalaris minor), chickweed (common chickweed, Stellaria media), galium (catchweed bedstraw, Galium aparine), bromegrass, downy (downy bromegrass, Bromus tectorum), field poppy (Papaver rhoeas), field violet (Viola arvensis), foxtail, green (green foxtail, Setaria viridis), deadnettle (henbit deadnettle, Lamium amplexicaule), ryegrass, Italian (Italian ryegrass, Lolium multiflorum), kochia (Kochia scoparia), lambsquarters (Chenopodium album), oilseed rape (Brassica napus), pigweed (Amaranthus retroflexus), chamomile (scentless chamomile, Matricaria inodora), Russian thistle (Salsola kali), speedwell (bird's-eye speedwell, Veronica persica), barley, spring (spring barley, Hordeum vulgare), wheat, spring (spring wheat, Triticum aestivum), buckwheat, wild (wild buckwheat, Polygonum convolvulus), mustard, wild (wild mustard, Sinapis arvensis), oat, wild (wild oat, Avena fatua), radish, wild (wild radish, Raphanus raphanistrum), […]), barley, winter (winter barley, Hordeum vulgare), and wheat, winter (winter wheat, Triticum aestivum) were planted into a silt loam soil and treated preemergence with test chemicals formulated in a non-phytotoxic solvent mixture which included a surfactant. At the same time, these species were planted in pots containing Redi-Earth® planting medium (Scotts Company, 14111 Scottslawn Road, Marysville, Ohio 43041) comprising spaghnum peat moss, vermiculite, wetting agent and starter nutrients and treated with postemergence applications of the test chemicals formulated in the same manner. Plants ranged in height from 2 to 18 cm (1- to 4-leaf stage). Treated plants and controls were maintained in a controlled growth environment for 7 to 21 days after which time all species were compared to controls and visually evaluated. Plant response ratings, summarized in Table D, are based on a scale of 0 to 100 where 0 is no effect and 100 is complete control. A dash (-) response means no test result.

Another experiment deals with barley, spring. The format is in vivo, Hordeum vulgare. To be noted: for Plant response rating: Barley, Spring, scale 0 to 100; for Plant response rating, Barley, Spring: scale 0 to 100 (0 no effect, 100 complete control).
Source text: as §1

A further experiment has as its system barley, winter. Format: in vivo, Hordeum vulgare. The note with it: for Plant response rating: Barley, Winter, scale 0 to 100; for Plant response rating, Barley, Winter: scale 0 to 100 (0 no effect, 100 complete control).
Source text: as §1

As for `O=C1NCC(c2ccc(F)c(F)c2)C1C(=O)Nc1ccccc1C(F)(F)F` (racemic) [Compound 6], the Plant response rating was 0 in the experiment on speedwell (16 g ai/ha); 0 in the experiment with speedwell (31 g ai/ha); 0 with speedwell (62 g ai/ha); 0 with speedwell (125 g ai/ha); 15 in the experiment with speedwell (250 g ai/ha); 0 in the experiment on barley, spring (Postemergence, 16 g ai/ha). In addition, the Plant response rating with barley, spring (Postemergence, 31 g ai/ha) amounted to 0; with barley, spring (Postemergence, 62 g ai/ha), 0; with barley, spring (Postemergence, 125 g ai/ha), 0; in the experiment on barley, spring (Postemergence, 250 g ai/ha) it was 0; in the experiment on barley, spring (Preemergence, 125 g ai/ha), 0; in the experiment with barley, spring (Preemergence, 250 g ai/ha), 10. The Plant response rating came to 0 in the experiment on barley, winter (Postemergence, 16 g ai/ha); 0 in the experiment with barley, winter (Postemergence, 31 g ai/ha); 0 in the experiment with barley, winter (Postemergence, 62 g ai/ha); 0 with barley, winter (Postemergence, 125 g ai/ha); 0 in the experiment with barley, winter (Postemergence, 250 g ai/ha); 0 with barley, winter (Preemergence, 125 g ai/ha). In addition, the Plant response rating with barley, winter (Preemergence, 250 g ai/ha) was determined as 20. Also, the “Plant response rating, Speedwell” value in the experiment on speedwell (62 g ai/ha) was 10; with speedwell (125 g ai/ha), 30; with speedwell (16 g ai/ha), 0; in the experiment on speedwell (31 g ai/ha) it was 10; with speedwell (250 g ai/ha), 50. Moreover, the “Plant response rating, Barley, Spring” value came out at 0 in the experiment with barley, spring (Preemergence, 62 g ai/ha); 0 in the experiment on barley, spring (Preemergence, 16 g ai/ha); 0 in the experiment with barley, spring (Preemergence, 31 g ai/ha). The “Plant response rating, Barley, Winter” value came to 0 with barley, winter (Preemergence, 62 g ai/ha); 0 with barley, winter (Preemergence, 16 g ai/ha); 0 in the experiment on barley, winter (Preemergence, 31 g ai/ha).

Consider `O=C1NCC(c2ccc(F)c(C(F)(F)F)c2)C1C(=O)Nc1cccc(F)c1F` (racemic) [Compound 77], for which the “Plant response rating, Speedwell” value with speedwell (62 g ai/ha) is listed as 25; in the experiment with speedwell (125 g ai/ha), 35; in the experiment with speedwell (31 g ai/ha), 20; in the experiment with speedwell (250 g ai/ha), 100. Besides, the “Plant response rating, Barley, Spring” value in the experiment with barley, spring (Preemergence, 62 g ai/ha) worked out at 5; in the experiment with barley, spring (Preemergence, 31 g ai/ha), 5. For the same compound, the Plant response rating in the experiment with barley, spring (Preemergence, 125 g ai/ha) turned out to be 25; in the experiment on barley, spring (Preemergence, 250 g ai/ha), 25; in the experiment on barley, winter (Preemergence, 125 g ai/ha) it was 45; with barley, winter (Preemergence, 250 g ai/ha) it was 55. Besides, the “Plant response rating, Barley, Winter” value was found to be 0 with barley, winter (Preemergence, 62 g ai/ha) and 0 in the experiment on barley, winter (Preemergence, 31 g ai/ha).

For the compound `O=C1NCC(c2cc(F)c(F)cc2F)C1C(=O)Nc1cccc(F)c1F` (stereo not drawn) [Compound 50], the Plant response rating in the experiment on speedwell (16 g ai/ha) worked out at 0; with barley, spring (Postemergence, 16 g ai/ha), 0; with barley, spring (Postemergence, 31 g ai/ha) it was 0; in the experiment on barley, spring (Postemergence, 62 g ai/ha), 0; with barley, spring (Postemergence, 125 g ai/ha), 0; with barley, spring (Preemergence, 125 g ai/ha), 0. The Plant response rating in the experiment on barley, winter (Postemergence, 16 g ai/ha) was determined as 0; with barley, winter (Postemergence, 31 g ai/ha), 0; with barley, winter (Postemergence, 62 g ai/ha), 0; in the experiment with barley, winter (Postemergence, 125 g ai/ha), 0; with barley, winter (Preemergence, 125 g ai/ha), 0. In addition, the “Plant response rating, Speedwell” value in the experiment on speedwell (62 g ai/ha), in the experiment with speedwell (125 g ai/ha), in the experiment on speedwell (16 g ai/ha) and in the experiment with speedwell (31 g ai/ha) was 0 throughout. For the same compound, the “Plant response rating, Barley, Spring” value in the experiment on barley, spring (Preemergence, 62 g ai/ha) is on record as 0; in the experiment with barley, spring (Preemergence, 16 g ai/ha), 0; in the experiment with barley, spring (Preemergence, 31 g ai/ha) it was 0. The “Plant response rating, Barley, Winter” value with barley, winter (Preemergence, 62 g ai/ha) is listed as 0; in the experiment with barley, winter (Preemergence, 16 g ai/ha), 0; in the experiment with barley, winter (Preemergence, 31 g ai/ha), 0.
